How the values were obtained:
[1] = test system: SRRM2-RFP intron 9-10, αTC1; experiment: Live imaging of SRRM2-RFP (nuclear speckles); assay type: cell-based, mouse
Excerpt: Cell lines with fluorescent tags in the endogenous intron loci of different genes were generated as described in Serebrenik et al., and Reicher et al.[39],[74]. Cells were transiently transfected using Avalanche-Everyday Transfection Reagent with three plasmids in parallel: (1) the donor plasmid containing the artificial intron with splice acceptor and splice donor site, the fluorescent tag GFP or RFP, and a possible correction for the frame of the targeted intron, (2) a pX330 backbone containing Cas9 and the gRNA against the donor plasmid, and (3) a plasmid expressing the gRNA against the target intron (see table below). After 3–5 days, GFP- and/or RFP-positive cells were sorted on a SONY SH800 Cell Sorter to get fluorescent single cell clones. Clones were validated for the correct integration of the intron-tag via comparison of live cell images to publicly available or in-house IF images, genomic DNA PCR amplification of the respective loci, and western blots with antibodies against the target protein and/or the fluorescent tag.
Cells were imaged on a PerkinElmer Opera Phenix automated microscope with 500 ms exposure time in either GFP or RFP channel, or on a Zeiss LSM 980 microscope. For condition-independent identification nuclear markers such as Hoechst or DRAQ5^TM were used.
Images were analyzed using the high-content image acquisition and analysis software Harmony® 4.9 developed by PerkinElmer. First, nuclei were identified in the channel of the nuclear marker (DAPI/ Hoechst/ DRAQ5^TM) (with Method C, Common Threshold 0.75, Area > 10 µm^2). After the identification of nuclei, their corresponding cytoplasm was also identified using the respective nucleic acid marker (with Method A, Individual Threshold 0.15). Even though the highest staining of these nuclear markers is obviously detected in the nucleus they still produce a significant staining of the cytoplasm above background. After defining the respective cell areas, mean intensity in the different channels was measured. […]

APEX2-SMNDC1^TD = molecular target: T1, APEX2-SMNDC1^TD (Homo sapiens, UniProt O75940); experiment: APEX2-SMNDC1^TD proximity labeling, biotin enrichment and mass spectrometry; assay type: cell-based, mouse; conditions: compound-treated over DMSO; adjusted p-value<0.05, |log2FC|≥2
T1 construct: a truncated SMNDC1 consisting of only the Tudor domain and therefore lacking N-terminal and C-terminal regions; expressed in transfected cells
T1 sequence (O75940 72-132 limits assumed): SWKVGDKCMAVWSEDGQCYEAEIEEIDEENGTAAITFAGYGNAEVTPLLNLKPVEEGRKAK
Excerpt: Proximity labeling with APEX2 was done following the described protocol for imaging and proteomic analysis. Cell lines with a stable expression of APEX2-fusion proteins were generated using lentiviral transduction of plasmids generated with Gateway cloning of the respective fusion protein into pLEX305. pLEX_305 was a gift from David Root (Addgene plasmid # 41390; http://n2t.net/addgene:41390; RRID:Addgene_41390). The APEX2 sequence was amplified from APEX2-csGBP which was a gift from Rob Parton (Addgene plasmid # 108874; http://n2t.net/addgene:108874; RRID:Addgene_108874). Briefly, cells were incubated with 0.5 mM biotin-phenol for 30 min, after which 1 mM H2O2 was added for exactly 1 min. Afterwards the labeling reaction was quenched by 3 quick washes with Quenching solution (10 mM sodium ascorbate, 10 mM sodium azide, 5 mM Trolox in PBS). […]
After proximity labeling, cells (~10 Mio. cells, 15 cm dish) were harvested, washed 2x in PBS, snap frozen and stored at −80 °C. […] After quantification of protein amounts by Pierce™ 660 nm Protein Assay, samples were normalized to 500 µg total protein input in a final volume of 300 µl lysis buffer. […]
Following data acquisition, acquired raw data files were processed using the Proteome Discoverer v.2.4.1.15 platform, choosing a TMT16plex quantification method. […]

αTC1 cells = experiment: Cell death, AnnexinV and Propidium Iodide staining
Excerpt: PI+ cells (αTC1), treated with DMSO or compound 1 . Data shown as mean + standard

CN(C)S(=O)(=O)c1ccc(C(=O)Nc2nc(-c3ccccn3)cs2)cc1 [compound 1]
SRRM2 and general organization of nuclear speckles [1]: affected
SRRM2 spots [1]: appeared to dissolve into the nucleoplasm
overall SRRM2 intensity [1]: slightly reduced
proteins significantly depleted (APEX2-SMNDC1^TD): 0 proteins
proteins significantly enriched (APEX2-SMNDC1^TD): 5 proteins
percentage of AnnexinV and Propidium Iodide (PI) positive cells (αTC1 cells; 16 h after start of treatment): elevated
outcome of longer treatment (αTC1 cells; longer than 12–16 h at 50 µM): cell death
AnnexinV or PI staining relative to DMSO (αTC1 cells; reviewer's reading of the plot (Supplementary Fig. 5)): 2-3 times

Reference: PMC10432564, “Pharmacological perturbation of the phase-separating protein SMNDC1” (Nature Communications, 2023)
